Data reported in patent US9833425B2, “Gentisic acid is used to improve systemic hemodynamics, hepatic mitochondrial function and lactate acidemia in patients with septic shock” (priority 2015, dated 2017).
“Also recorded” adds a separate entry of the source. Where two headings read alike, the source gives them in different places. Marks after values point to notes of the source that are not given here.

Test system: canine model of septic shock (Pseudomonas aeruginosa)
Conditions: for effect of treatment on heart rate (HR): 3 hrs and 5 hrs posttreatment vs other septic groups; for ALT (alanine transaminase) / AST (aspartate transaminase) / Arterial pH / CK (creatine kinase) / Oxygen delivery / Cardiac output / LD (lactate dehydrogenase) / Lactate / Mean arterial pressure / Pulmonary wedge pressure / Stroke work index / Troponin / Heart Rates: mean ± SD; for effect of treatment on mean arterial pressure (MAP): infusion started at septic shock condition, 3 hr and 5 hr post treatment; for effect of treatment on blood lactate concentration: over the course of the study; for Systemic vascular resistance: mean (SD in the cell below)
Protocol: We used a bacteremic model of Pseudomonas aeruginosa in this study as previously described (20). We used this particular model, since we wanted to measure mitochondrial function and LA under conditions of an acute and intensive inflammatory response analogous to that which would occur in a severe bout of SS in the clinical condition. […] Over the course of the experiment, we studied the animals (18 to 26 kg) while anesthetized with sufentanil citrate (0.05-0.3 ug/kg/min) and midazolam (5 ug/kg/min), and while being ventilated receiving 100% oxygen to maintain arterial around PO2 ˜400 mmHg. We adjusted the ventilator rate over the course of the study to attenuate the development of the metabolic acidosis that is usually observed (20).
To assess hemodynamics in this model, we inserted vascular catheters under sterile conditions as previously described (20), after which we connected the catheters to pressure transducers (Cobe, Argon) that were referenced relative to the left atrium and connected to a chart recorder (Astro-Med, W Warwick, R.I.). To measure MAP, we inserted a polyethylene catheter into the right femoral artery, while to measure pulmonary vascular pressures, we inserted a Swanz-Ganz catheter (Edwards Lifesciences, Irvine, Calif.) by percutaneous techniques through the right jugular vein. From the Swanz-Ganz catheter, we obtained measurements of pulmonary arterial pressure (Ppa), wedge pressure (Pwp), and right atrial pressure (Rap), as well as determinations of thermodilution cardiac output (CO).
From the hemodynamic measurements, we calculated SV from CO/heart rates (HR), stroke work (SW) from [SV*(MAP−Pwp)], and systemic vascular resistance (SVR) from [(MAP-Rap)/CO)*80]. We also normalized measurements of SV, SW, and CO and organ oxygen delivery (DO2) to body weight. We calculated DO2 from CO×Hb×1.34 ml oxygen per gram of Hb, since Hb was 100% saturated at a PO2 of ˜400 mmHg. From the arterial catheter and distal port of the Swanz-Ganz catheter, we also took arterial and mixed venous blood samples, respectively, for analyses of PO2, PCO2, and pH.
In addition, we placed another polyethylene catheter into the left jugular vein, also by percutaneous techniques, for infusion of the bacteria and intravenous fluids and for obtaining blood chemistry and hematological samples. Since the baseline Pwp found in this model usually averages≈8-10 mmHg, we infused normal saline solution as necessary to maintain Pwp relatively constant over the duration of this study. […] The Clinical Chemistry Laboratory at the Health Sciences Centre performed the clinical laboratory tests.
We included 5 groups of animals in the initial phase of this study. These groups included a septic control group, a non-septic control group, a norepinephrine (NE) septic group, a gentisic acid sodium salt (GSS) septic group, and a GSS non-septic group. In each group, we made baseline measurements of hemodynamics and blood parameters after approximately 1 hr period of stability. In the septic groups, after initiation of the bacterial infusion, we repeated the measurements in the septic shock condition. […] In the septic control group, after the SS condition, we started an infusion of 5% dextrose in water (D5W) at approximately 40 ml/hr for the remainder of the study, since D5W was the diluent for both the NE and GSS treatments.
In all groups, we then made posttreatment measurements at 3 hrs and 5 hrs after completion of the septic shock/sham-shock determinations.
In this supplemental study, we examined the effect of gallic acid on hemodynamics and mitochondrial function in our Pseudomonas aeruginosa model in a manner identical to that described for GSS treatment.

[1] = septic dogs, listed as gentisic, sodium salt
[2] = septic dogs, 3 hrs posttreatment
[3] = septic dogs, 5 hrs posttreatment
[4] = septic dogs, baseline (before bacteria/treatment)
[5] = septic dogs, septic shock (before treatment)
[6] = septic dogs, septic shock condition (before treatment)

O=C([O-])c1cc(O)ccc1O.[Na+] [GSS, 2,5-dihydroxybenzoic acid sodium salt]
time of infusion until systemic blood pressure reached the baseline value (one dog of the gentisic septic group (FIG. 4)): approximately 20 minutes | arterial pH at the end of the study, compared among groups (septic dogs): higher | effect of treatment on stroke work index (septic dogs, 3 hr and 5 hr vs septic control group, did not reach statistical significance): an increase in stroke work index | effect of treatment on heart rate (HR) [1]: significant decrease in HR | effect of treatment on heart rate (HR) (septic dogs, sodium salt): heart rates were lower | effect of treatment on systemic vascular resistance (SVR) (septic dogs, 3 hrs and 5 hrs posttreatment vs septic shock condition, sodium salt): increased SVR back to the baseline value; also recorded: an increase in SVR | ALT (alanine transaminase) [2]: 209 ± 158*^+! IU | AST (aspartate transaminase) [2]: 235 ± 167*^+$ IU | Arterial pH [2]: 7.24 ± .08*^+$^ | CK (creatine kinase) [2]: 1847 ± 1763^! IU | Oxygen delivery [2]: 20 ± 7 mL/min/kg | ALT (alanine transaminase) [3]: 225 ± 171*^+ IU | AST (aspartate transaminase) [3]: 279 ± 208*^+!$ IU | Arterial pH [3]: 7.20 ± 0.06*^+#$^ | CK (creatine kinase) [3]: 2857 ± 2527*^!^ IU | Oxygen delivery [3]: 20 ± 19 mL/min/kg | ALT (alanine transaminase) [4]: 51 ± 29 IU | AST (aspartate transaminase) [4]: 29 ± 31 IU | Arterial pH [4]: 7.38 ± .03 | CK (creatine kinase) [4]: 117 ± 106 IU | Oxygen delivery [4]: 18 ± 3 mL/min/kg | effect of treatment on mean arterial pressure (MAP) (septic dogs, sodium salt): increased MAP back to the baseline value; also recorded: return in MAP to baseline | effect of treatment on blood lactate concentration [1]: did not increase and even tended to decrease slightly | effect of treatment on blood lactate concentration (septic dogs, sodium salt): did not change | ALT (alanine transaminase) [5]: 161 ± 132 IU | AST (aspartate transaminase) [5]: 143 ± 113 IU | Arterial pH [5]: 7.26 | CK (creatine kinase) [5]: 521 ± 750 IU | Oxygen delivery [6]: 26 ± 6 mL/min/kg

O=C(O)c1cc(O)c(O)c(O)c1 [gallic acid, 3,4,5 trihydroxybenzoic acid]
Systemic vascular resistance (septic dogs, 3 hrs post treatment): 1673 dynes S/cm^5 | ALT (alanine transaminase) [2]: 187 ± 68*^+! IU | AST (aspartate transaminase) [2]: 324 ± 104*^+$ IU | Arterial pH [2]: 7.17 ± .10*^+@$ | CK (creatine kinase) [2]: 3832 ± 3896*^+ IU | Cardiac output [2]: 120 ± 400 mL/min/kg | LD (lactate dehydrogenase) [2]: 415 ± 192*^+#@$^ IU | Lactate [2]: .8 ± .4^#! nunol/L | Mean arterial pressure [2]: 71 ± 10^*%@!$ mmHg | Oxygen delivery [2]: 26 ± 7 mL/min/kg | Pulmonary wedge pressure [2]: 11.6 ± 2.6^+ mmHg | Stroke work index [2]: 62 ± 28*^+ ml mmHg/Kg | Troponin [2]: 41 ± 92 ng/L | Systemic vascular resistance (septic dogs, 5 hrs post treatment): 1478 dynes S/cm^5 | ALT (alanine transaminase) [3]: 189 ± 66*^+#! IU | AST (aspartate transaminase) [3]: 363 ± 89*^+$ IU | Arterial pH [3]: 7.12 | CK (creatine kinase) [3]: 5065 IU | Cardiac output [3]: 130 ± 40 mL/min/kg | LD (lactate dehydrogenase) [3]: 513 IU | Lactate [3]: .75 ± .35^#! nunol/L | Mean arterial pressure [3]: 60 ± 5*^%@!$ mmHg | Oxygen delivery [3]: 22 ± 3 mL/min/kg | Pulmonary wedge pressure [3]: 11.3 ± 2.1^+ mmHg | Stroke work index [3]: 49 ± 20*^+ ml mmHg/Kg | Troponin [3]: 69 ± 157* ng/L | Systemic vascular resistance [4]: 3566 dynes S/cm^5 | ALT (alanine transaminase) [4]: 33 ± 16 IU | AST (aspartate transaminase) [4]: 19 ± 3 IU | Arterial pH [4]: 7.40 ± .05 | CK (creatine kinase) [4]: 104 ± 35 IU | Cardiac output [4]: 113 ± 20 mL/min/kg | Heart Rates [4]: 49 ± 3 | LD (lactate dehydrogenase) [4]: 36 ± 10 IU | Mean arterial pressure [4]: 105 ± 14 mmHg | Oxygen delivery [4]: 21 ± 6 mL/min/kg | Pulmonary wedge pressure [4]: 11.3 ± 2.3 mmHg | Stroke work index [4]: 212 ± 43 ml mmHg/Kg | Troponin (septic dogs, baseline (before bacteria/treatment), index of myocardial injury): 0 ± 3 ng/L | effect of treatment on mean arterial pressure (MAP) (septic dogs): did not produce an increase in MAP | effect of treatment on blood lactate concentration (septic dogs): reduction in lactate at 3 hrs and 5 hrs posttreatment | ALT (alanine transaminase) [5]: 157 ± 61 IU | AST (aspartate transaminase) [5]: 241 ± 104*^+$ IU | Arterial pH [5]: 7.25 ± .10*^+$ | CK (creatine kinase) [5]: 2650 ± 3339 IU | LD (lactate dehydrogenase) [5]: 200 ± 98*^+$ IU | Systemic vascular resistance [6]: 1257 dynes S/cm^5 | Cardiac output [6]: 150 ± 40 mL/min/kg | Heart Rates [6]: 125 ± 28*^+ | Mean arterial pressure [6]: 64 ± 12*^+ mmHg | Oxygen delivery [6]: 25 ± 6 mL/min/kg | Pulmonary wedge pressure [6]: 10.4 ± 2.7^+ mmHg | Stroke work index [6]: 72 ± 32*^+ ml mmHg/Kg | Troponin [6]: 14 ± 15 ng/L
